The text below walks through data of ChEMBL document CHEMBL2021779, “Inhibition of hepatitis C virus NS5A by fluoro-olefin based γ-turn mimetics” (Bioorg Med Chem Lett, 2012).

For test [1], the system named is Hepatitis C virus. In words: Antiviral activity against Hepatitis C virus genotype 2A by whole cell replicon assay. The test is classed as functional, organism-based, Hepacivirus hominis.
Test [2] concerns Hepatitis C virus subtype 1a. In words: Antiviral activity against Hepatitis C virus genotype 1A by whole cell replicon assay.
The subject of test [3] is Hepatitis C virus. The experiment in a line: Antiviral activity against Hepatitis C virus genotype 1B by whole cell replicon assay. The test is classed as functional, organism-based, Hepacivirus hominis. Background: A replicon is a self-replicating genome or part of one, used to study replication in cells.

Molecules are shown by their SMILES.

Consider `COC(=O)N[C@H](/C(F)=C1\CCC[C@H]1c1ncc(-c2ccc(-c3ccc(-c4cnc([C@@H]5CCC/C5=C(/F)[C@@H](NC(=O)OC)C(C)C)[nH]4)cc3)cc2)[nH]1)C(C)C`, for which the concentration giving a half-maximal response (EC50) (in general, the midpoint of the concentration-response curve) in the test with Hepatitis C virus [1] stood at 167 nM; in test [2] it was 189 nM; with Hepatitis C virus [3] it was 0.079 nM.

With `COC(=O)N[C@H](C(=O)N1CCC[C@H]1c1ncc(-c2ccc(-c3ccc(-c4cnc([C@@H]5CCCN5C(=O)[C@@H](NC(=O)OC)C(C)C)[nH]4)cc3)cc2)[nH]1)C(C)C`, the EC50 is 0.063 nM in the test on Hepatitis C virus [1] and […] in the test with Hepatitis C virus [3].

With `COC(=O)N[C@H](/C(F)=C(\C)[C@@H](C)c1ncc(-c2ccc(-c3ccc(-c4cnc([C@H](C)/C(C)=C(\F)[C@@H](NC(=O)OC)C(C)C)[nH]4)cc3)cc2)[nH]1)C(C)C`, the concentration for a half-maximal effect (EC50) with Hepatitis C virus [1] worked out at 397 nM; in test [2], 659 nM; in the test with Hepatitis C virus [3], 27.3 nM.
